Source: the Kinase Knowledgebase extract (Sharma et al. 2016)

target: PIK3CA (human) (UniProt P42336); experiment: Inhibition of PIK3CA Kinase Activity
Sequence (P42336 whole entry, looked up): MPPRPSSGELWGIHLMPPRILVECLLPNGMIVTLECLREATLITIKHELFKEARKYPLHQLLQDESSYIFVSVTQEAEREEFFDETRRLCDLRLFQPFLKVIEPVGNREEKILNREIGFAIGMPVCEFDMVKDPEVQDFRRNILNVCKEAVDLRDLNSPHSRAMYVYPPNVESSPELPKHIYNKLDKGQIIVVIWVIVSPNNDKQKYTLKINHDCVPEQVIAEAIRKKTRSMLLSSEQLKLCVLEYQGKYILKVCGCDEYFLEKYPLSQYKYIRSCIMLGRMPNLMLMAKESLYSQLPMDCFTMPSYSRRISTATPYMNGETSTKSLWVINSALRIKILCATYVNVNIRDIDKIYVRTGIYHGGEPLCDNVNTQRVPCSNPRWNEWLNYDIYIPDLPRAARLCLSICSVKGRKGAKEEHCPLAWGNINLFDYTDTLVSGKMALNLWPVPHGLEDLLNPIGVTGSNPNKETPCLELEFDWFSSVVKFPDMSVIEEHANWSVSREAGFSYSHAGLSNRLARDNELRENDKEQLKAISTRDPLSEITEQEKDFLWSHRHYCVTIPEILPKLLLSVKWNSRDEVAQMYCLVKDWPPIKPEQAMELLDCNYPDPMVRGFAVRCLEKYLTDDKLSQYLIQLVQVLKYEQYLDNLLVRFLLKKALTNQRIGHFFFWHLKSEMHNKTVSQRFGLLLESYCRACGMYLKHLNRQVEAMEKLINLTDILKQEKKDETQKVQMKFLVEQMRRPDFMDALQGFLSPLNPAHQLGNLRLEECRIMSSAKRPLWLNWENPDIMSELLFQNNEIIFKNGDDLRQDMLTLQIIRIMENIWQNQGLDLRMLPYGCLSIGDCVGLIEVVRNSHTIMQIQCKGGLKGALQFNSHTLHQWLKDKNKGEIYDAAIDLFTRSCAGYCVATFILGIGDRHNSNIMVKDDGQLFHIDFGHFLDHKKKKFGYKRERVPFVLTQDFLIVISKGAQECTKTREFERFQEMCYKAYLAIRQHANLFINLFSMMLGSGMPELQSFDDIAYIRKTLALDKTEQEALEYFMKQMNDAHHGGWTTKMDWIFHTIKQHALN

Structure (SMILES)	IC50
CCCc1nc2ccc(-c3ccc4c(c3)CN(c3ccnc5ccccc35)CCO4)cc2[nH]1	50 to 250 nM
Cc1nc2cc(-c3ccc4c(c3)CN(c3nc(CN(C)C)nc(C)c3C)CCO4)cnc2[nH]1	10 to 50 nM
Cc1nc(Nc2ccccc2)c(C)c(N2CCOc3ccc(-c4ccc5nc[nH]c5c4)cc3C2)n1	50 to 250 nM
Cc1nc2ncc(-c3ccc4c(c3)CN(c3nc(CNCC(C)C)nc5c3CC(C)(C)CC5)CCO4)cc2[nH]1	10 to 50 nM
Cc1nc2ccc(-c3ccc4c(c3)CN(c3ncnc5ccc(Cl)cc35)CCO4)cc2[nH]1	10 to 50 nM
COC(=O)Nc1nc2ccc(-c3ccc4c(c3)CN(c3ncccc3C)CCO4)cc2[nH]1	50 to 250 nM
Cc1nc2ccc(-c3ccc4c(c3)CN(c3ccnc5ccccc35)CCO4)cc2[nH]1	10 to 50 nM
Cc1nc2ncc(-c3ccc4c(c3)CN(c3ncnc5c3CCC(CO)C5)CCO4)cc2[nH]1 (configuration not stated)	10 to 50 nM
CC1(C)CCc2ncnc(N3CCOc4ccc(-c5cnc(N)c(S(=O)(=O)NC(C)(C)CO)c5)cc4C3)c2C1	50 to 250 nM
O=C(CCCN1CCCCC1)Nc1nc2ccc(-c3ccc4c(c3)CN(c3ccnc5ccccc35)CCO4)cc2[nH]1	50 to 250 nM
Cc1nc2cc(-c3ccc4c(c3)CN(c3nc(C(C)N)nc5c3CC(C)(C)CC5)CCO4)ccc2[nH]1 (configuration not stated)	10 to 50 nM
CC1(C)CCc2ncnc(N3CCOc4ccc(-c5cnc(N)c(S(=O)(=O)NC6CC7CCC(C6)N7)c5)cc4C3)c2C1 (configuration not stated)	50 to 250 nM
Cc1ncnc(N2CCOc3ccc(-c4cncs4)cc3C2)c1Cc1ccc(F)cc1	250 to 1000 nM
Cc1ncnc(N2CCOc3ccc(-c4cnc5nc(N)cn5c4)cc3C2)c1Cc1ccc(F)cc1	50 to 250 nM
CC1(C)CCc2ncnc(N3CCOc4ccc(-c5cnc(N)c(S(=O)(=O)NCC(F)(F)F)c5)cc4C3)c2C1	50 to 250 nM
CC1(C)CCc2ncnc(N3CCOc4ccc(-c5cnc(N)c(S(=O)(=O)NCC(O)C(F)(F)F)c5)cc4C3)c2C1 (configuration not stated)	10 to 50 nM
Cc1nc(CN(C)C)nc(N2CCOc3ccc(-c4cnc5sc(N)nc5c4)cc3C2)c1Cl	10 to 50 nM
Cc1nc2ncc(-c3ccc4c(c3)CN(c3ncnc5c3CCCC5(C)C)CCO4)cc2[nH]1	50 to 250 nM
CNc1ncc(-c2ccc3c(c2)CN(c2ncnc4c2CC(C)(C)CC4)CCO3)cc1NS(C)(=O)=O	50 to 250 nM
CC1(C)CCc2ncnc(N3CCOc4ccc(-c5cnc(N)c(S(=O)(=O)N6C7CCC6CC(N)C7)c5)cc4C3)c2C1 (configuration not stated)	10 to 50 nM

Structure (SMILES)	IC50
Cc1ncnc(N2CCOc3ccc(-c4ccc5nc(N)cn5c4)cc3C2)c1Cc1ccc(F)cc1	10 to 50 nM
CC1(C)CCc2ncnc(N3CCOc4ccc(-c5cncc(NS(C)(=O)=O)c5)cc4C3)c2C1	50 to 250 nM
Cc1nc2ncc(-c3ccc4c(c3)CN(c3ncnc(N5CCN(C)CC5)c3C)CCO4)cc2[nH]1	50 to 250 nM
CC1(C)CCc2ncnc(N3CCOc4ccc(-c5cnc(N)c(S(=O)(=O)N6CCC6)c5)cc4C3)c2C1	10 to 50 nM
Cc1nc2ncc(-c3ccc4c(c3)CN(c3nc(CN5CC[C@H](F)C5)nc5c3CC(C)(C)CC5)CCO4)cc2[nH]1	10 to 50 nM
CCN1CCc2c(ncnc2N2CCOc3ccc(-c4ccc5nc(C)[nH]c5c4)cc3C2)C1	250 to 1000 nM
Cc1nc2ccc(-c3ccc4c(c3)CN(c3ccnc(Nc5ccccc5)n3)CCO4)cc2[nH]1	250 to 1000 nM
CNC(=O)Nc1ccc(-c2ccc3c(c2)CN(c2nc(C)nc4cc(OC)ccc24)CCO3)cc1	50 to 250 nM
COc1cc2ncnc(N3CCOc4ccc(-c5ccc6nc(C)[nH]c6c5)cc4C3)c2cc1I	10 to 50 nM
Cc1nc2ncc(-c3ccc4c(c3)CN(c3ncnc(N5CCOCC5)c3C)CCO4)cc2[nH]1	50 to 250 nM
CCNc1nc(N2CCOc3ccc(-c4ccc5nc(NCC)[nH]c5c4)cc3C2)c2ccccc2n1	50 to 250 nM
CC[C@H]1CCc2c(ncnc2N2CCOc3ccc(-c4cnc(N)c(S(=O)(=O)N5CCC(C)(N)C5)c4)cc3C2)C1 (some centres not stated)	10 to 50 nM
CCNc1nc2ccc(-c3ccc4c(c3)CN(c3ccnc5ccc(OC)cc35)CCO4)cc2[nH]1	10 to 50 nM
CCNc1nc2ccc(-c3ccc4c(c3)CN(c3ncnc5cc(OC)c(OC)cc35)CCO4)cc2[nH]1	10 to 50 nM
Cc1nc2ccc(-c3ccc4c(c3)CN(c3nc(CNC5CC5)nc(C)c3Cc3ccc(F)cc3)CCO4)cc2[nH]1	10 to 50 nM
Cc1nc2ccc(-c3ccc4c(c3)CN(c3ncnc5cc(Cl)c(Br)cc35)CCO4)cc2[nH]1	250 to 1000 nM
COc1c(O)ccc2c(N3CCOc4ccc(-c5ccc6nc(C)[nH]c6c5)cc4C3)ncnc12	10 to 50 nM
Cc1nc2ccc(-c3ccc4c(c3)CN(c3ncnc5ccc(O)cc35)CCO4)cc2[nH]1	50 to 250 nM
Cc1ccc2ncnc(N3CCOc4ccc(-c5ccc6nc(C)[nH]c6c5)cc4C3)c2c1	10 to 50 nM
Cc1nc2cc(-c3ccc4c(c3)CN(c3nc(CNCCF)nc(C)c3C(C)C)CCO4)ccc2[nH]1	10 to 50 nM

Structure (SMILES)	IC50
Cc1nc2ccc(-c3ccc4c(c3)CN(c3ncnc(C)c3Cc3ccc(C(F)(F)F)cc3)CCO4)cc2[nH]1	10 to 50 nM
C=Cc1nc2c(c(N3CCOc4ccc(-c5cnc6[nH]c(C)nc6c5)cc4C3)n1)CC(C)(C)CC2	50 to 250 nM
Cc1ccc2c(N3CCOc4ccc(-c5ccc6nc(C)[nH]c6c5)cc4C3)ncnc2c1	10 to 50 nM
CC1(C)CCc2ncnc(N3CCOc4ccc(-c5cnc(N)c(S(C)(=O)=O)c5)cc4C3)c2C1	10 to 50 nM
CC1(C)CCc2ncnc(N3CCOc4ccc(-c5cnc(N)c(S(=O)(=O)CCCO)c5)cc4C3)c2C1	10 to 50 nM
Cc1nc2c(c(N3CCOc4ccc(-c5cnc6nc(C7CC7)[nH]c6c5)cc4C3)n1)CC(C)(C)CC2	50 to 250 nM
CC1(C)CCc2ncnc(N3CCOc4ccc(-c5cncc(S(N)(=O)=O)c5)cc4C3)c2C1	50 to 250 nM
CNS(=O)(=O)c1cc(-c2ccc3c(c2)CN(c2ncnc(C)c2Cc2ccc(F)cc2)CCO3)cnc1N	50 to 250 nM
Cc1nc2ccc(-c3ccc4c(c3)CN(c3nc(CNC5CC5)nc5c3CC(C)(C)CC5)CCO4)cc2[nH]1	10 to 50 nM
CCNS(=O)(=O)c1cc(-c2ccc3c(c2)CN(c2ncnc4c2CC(C)(C)CC4)CCO3)cnc1N	10 to 50 nM
COc1ccc(-c2ccc3c(c2)CN(c2nc(CN(C)C)nc4c2CC(C)(C)CC4)CCO3)cc1S(C)(=O)=O	10 to 50 nM
COC(=O)Nc1nc2ccc(-c3ccc4c(c3)CN(c3ncnc5[nH]ccc35)CCO4)cc2[nH]1	250 to 1000 nM
Nc1nc2ccc(-c3ccc4c(c3)CN(c3nc(-c5ccccc5)nc5ccccc35)CCO4)cc2[nH]1	50 to 250 nM
Cc1nc(CN(C)C)nc(N2CCOc3ccc(-c4ccc5[nH]c(C(F)F)nc5c4)cc3C2)c1C(C)C	10 to 50 nM
Cc1ncnc(N2CCOc3ccc(-c4ccc5sc(N)nc5n4)cc3C2)c1Cc1ccc(F)cc1	10 to 50 nM
CC1(C)CCc2ncnc(N3CCOc4ccc(-c5cnc(F)c(NS(C)(=O)=O)c5)cc4C3)c2C1	50 to 250 nM
CCCOc1ccc2ncnc(N3CCOc4ccc(-c5ccc6nc(C)[nH]c6c5)cc4C3)c2c1	250 to 1000 nM
Cc1nc2cc(-c3ccc4c(c3)CN(c3ncnc(C)c3Cc3ccc(F)cc3)CCO4)cnc2[nH]1	10 to 50 nM
COc1c(Cl)cc2c(N3CCOc4ccc(-c5ccc6nc(C)[nH]c6c5)cc4C3)ncnc2c1OC	50 to 250 nM
C[C@H]1CCc2c(ncnc2N2CCOc3ccc(-c4cnc5nc(C6CC6)[nH]c5c4)cc3C2)C1	10 to 50 nM

Continued, values first:

IC50	Structure (SMILES)
≤ 10 nM	Cc1nc2cc(-c3ccc4c(c3)CN(c3nc(CN(C)C)nc(C)c3C(C)C)CCO4)cnc2[nH]1
≤ 10 nM	CC1CCc2c(ncnc2N2CCOc3ccc(-c4cnc5nc(N)[nH]c5c4)cc3C2)C1 (configuration not stated)
10 to 50 nM	CC1(C)CCc2ncnc(N3CCOc4ccc(-c5cnc(N)c(S(=O)(=O)N6CC(N)C6)c5)cc4C3)c2C1
≤ 10 nM	CCc1c(C)nc(CN(C)C)nc1N1CCOc2ccc(-c3cnc4sc(N)nc4c3)cc2C1
10 to 50 nM	Cc1nc2ncc(-c3ccc4c(c3)CN(c3nc(CNCCF)nc5c3CC(C)(C)CC5)CCO4)cc2[nH]1
10 to 50 nM	COCCc1c(C)nc(CN(C)C)nc1N1CCOc2ccc(-c3cnc4sc(N)nc4c3)cc2C1
10 to 50 nM	CC1(C)CCc2ncnc(N3CCOc4ccc(-c5cnc(N)c(S(=O)(=O)N6CC(C)(N)C6)c5)cc4C3)c2C1
≤ 10 nM	C[C@@H](CO)CS(=O)(=O)c1cc(-c2ccc3c(c2)CN(c2ncnc4c2CC(C)(C)CC4)CCO3)cnc1N
≤ 10 nM	CN(C)Cc1nc2c(c(N3CCOc4ccc(-c5ccc(-c6ncc[nH]6)cc5)cc4C3)n1)CC(C)(C)CC2
≤ 10 nM	CC1(C)CCc2ncnc(N3CCOc4ccc(-c5cnc(N)c(S(=O)(=O)NCCCO)c5)cc4C3)c2C1
≤ 10 nM	COc1ccc2c(N3CCOc4ccc(-c5cnc6[nH]cnc6c5)cc4C3)nc(CN(C)C)nc2c1
≤ 10 nM	Cc1nc2ncc(-c3ccc4c(c3)CN(c3nc(CN[C@@H](C)C(=O)O)nc5c3CC(C)(C)CC5)CCO4)cc2[nH]1
≤ 10 nM	COC(=O)Nc1nc2ncc(-c3ccc4c(c3)CN(c3nc(CN(C)C)nc5c3CC(C)(C)CC5)CCO4)cc2[nH]1
≤ 10 nM	CC[C@H]1CCc2c(nc(C)nc2N2CCOc3ccc(-c4cnc5nc(C)[nH]c5c4)cc3C2)C1
≤ 10 nM	CC[C@H]1CCc2c(ncnc2N2CCOc3ccc(-c4cnc5nc(C)[nH]c5c4)cc3C2)C1
≤ 10 nM	COc1cc2nccc(N3CCOc4ccc(-c5cnc6nc(N)[nH]c6c5)cc4C3)c2cc1OC
≤ 10 nM	CCNCc1nc2c(c(N3CCOc4ccc(-c5ccc6nc(C)[nH]c6c5)cc4C3)n1)CC(C)(C)CC2
≤ 10 nM	Cc1nc2cc(-c3ccc4c(c3)CN(c3nc(CN5CCCC5)nc5c3CC(C)(C)CC5)CCO4)cnc2[nH]1
≤ 10 nM	Cc1ncnc(N2CCOc3ccc(-c4cnc5sc(N)nc5c4)cc3C2)c1Cc1ccc(F)cc1
≤ 10 nM	COc1ccc2c(N3CCOc4ccc(-c5cnc(N)s5)cc4C3)nc(C)nc2c1
≤ 10 nM	Cc1nc2ccc(-c3ccc4c(c3)CN(c3ncnc(C)c3C(C)c3cccc(F)c3)CCO4)cc2[nH]1 (configuration not stated)
≤ 10 nM	COc1ccc2c(N3CCOc4ccc(-c5cnc6sc(N)nc6c5)cc4C3)nc(C)nc2c1
≤ 10 nM	COC1Cc2nc(CN(C)C)nc(N3CCOc4ccc(-c5cnc6nc(C)[nH]c6c5)cc4C3)c2CC1(C)C (configuration not stated)
≤ 10 nM	CC1(C)CCc2ncnc(N3CCOc4ccc(-c5cnc(N)c(S(N)(=O)=O)c5)cc4C3)c2C1
≤ 10 nM	COc1ccc2c(N3CCOc4ccc(-c5ccc6[nH]c(C)nc6c5)cc4C3)nc(CN(C)C)nc2c1
≤ 10 nM	COc1ccc2c(N3CCOc4ccc(-c5ccc6[nH]cnc6c5)cc4C3)nc(CN(C)C)nc2c1
≤ 10 nM	CCNc1nc2ccc(-c3ccc4c(c3)CN(c3nc(C)nc5cc(O)ccc35)CCO4)cc2[nH]1
